Reference: patent US6465395B2, “Substituted methylene pyrazolinones and the herbicidal use thereof” (BASF Aktiengesellschaft, priority 2000, dated 2002)

Key:
Assay type in all cases: in vivo
Design in all cases: scale not given here
[1] = test system: AMBEL, Ragweed, Ambrosia artemisifolia, L.; assay: Postemergence herbicidal evaluation
Procedure: (§1) The postemergence herbicidal activity of the compounds of the present invention is evaluated by the following tests. Seedling plants are grown in jiffy flats for about two weeks. The test compounds are dispersed in 80/20 (v/v) acetone/water mixtures containing 1.0% SUN-IT®II, a methylated seed oil, in sufficient quantities to provide the equivalent of about 0.006 kg/ha to 0.800 kg/ha of active compound when applied to the plants through a spray nozzle operating at 40 psi for a predetermined time. After spraying, the plants are placed on greenhouse benches and are cared for in accordance with conventional greenhouse procedures. Approximately two to three weeks after treatment, the seedling plants are examined and rated according to the rating system set forth below. Where more than one test is involved for a given compound, the data are averaged.

[2] = test system: ABUTH, Velvetleaf, Abutilon theophrasti, Medic.; assay: Postemergence herbicidal evaluation
Procedure: as §1

[3] = test system: ECHCG, Barnyardgrass, Echinochloa crus-galli, (L.) Beau; assay: Postemergence herbicidal evaluation
Procedure: as §1

[4] = test system: ZEAMX, Corn, Field, Zea mays, L.; assay: Postemergence herbicidal evaluation; details: crop (corn)
Procedure: as §1

[5] = test system: SETVI, Foxtail, Green, Setaria viridis, (L.) Beau; assay: Postemergence herbicidal evaluation
Procedure: as §1

[6] = test system: ORYSAT, Rice, Tebonnet, Oryza sativa, (L.) Tebonnet; assay: Postemergence herbicidal evaluation; details: crop (rice)
Procedure: as §1

[7] = test system: PANDI, Panicum, Fall, Panicum dichotomiflorum, Michx; assay: Postemergence herbicidal evaluation
Procedure: as §1

[8] = test system: IPOSS, Morningglory spp., Ipomoea spp.; assay: Postemergence herbicidal evaluation
Procedure: as §1

[9] = test system: CHEAL, Lambsquarters, Chenopodium album, L.; assay: Postemergence herbicidal evaluation
Procedure: as §1

[10] = test system: AMBEL, Ragweed, Ambrosia artemisifolia, L.; assay: Preemergence herbicidal evaluation
Source text: (§2) The preemergence herbicidal activity of the test compounds of the present invention is exemplified by the following tests in which the seeds of a variety of monocotyledonous and dicotyledonous plants are separately mixed with potting soil and planted on top of approximately one inch of soil in separate pint cups. After planting, the cups are sprayed with the selected aqueous acetone solution containing test compound in sufficient quantity to provide the equivalent of about 0.0125 kg/ha to 0.800 kg/ha of test compound per cup. The treated cups are then placed on greenhouse benches, watered and cared for in accordance with conventional greenhouse procedures. Approximately two to four weeks after treatment, the tests are terminated and each cup is examined and rated according to the rating system provided in Example 12. When more than one test is performed for a given compound, the data are averaged.

[11] = test system: ABUTH, Velvetleaf, Abutilon theophrasti, Medic.; assay: Preemergence herbicidal evaluation
Source text: as §2

[12] = test system: GOSHI, Cotton, Gossypium hirsutum, L.; assay: Preemergence herbicidal evaluation; details: crop (cotton)
Source text: as §2

[13] = test system: ECHCG, Barnyardgrass, Echinochloa crus-galli, (L.) Beau; assay: Preemergence herbicidal evaluation
Source text: as §2

[14] = test system: ZEAMX, Corn, Field, Zea mays, L.; assay: Preemergence herbicidal evaluation; details: crop (corn)
Source text: as §2

[15] = test system: SETVI, Foxtail, Green, Setaria viridis, (L.) Beau; assay: Preemergence herbicidal evaluation
Source text: as §2

[16] = test system: ORYSAT, Rice, Tebonnet, Oryza sativa, (L.) Tebonnet; assay: Preemergence herbicidal evaluation; details: crop (rice)
Source text: as §2

[17] = test system: CHEAL, Lambsquarters, Chenopodium album, L.; assay: Preemergence herbicidal evaluation
Source text: as §2

[18] = test system: PANDI, Panicum, Fall, Panicum dichotomiflorum, Michx; assay: Preemergence herbicidal evaluation
Source text: as §2

[19] = test system: IPOSS, Morningglory spp., Ipomoea spp.; assay: Preemergence herbicidal evaluation
Source text: as §2

## 4,4′-[(Z,Z)-Dithiobis[(2,3-dihydro-3,3,4-trimethylbenzo[b]thien-5-yl)methylidyne]]bis[1-methyl-2-pyrazolin-5-one] S,S,S′,S′,-tetraoxide, 80:20 mixture with 4,4′-[(E,Z)-dithiobis[(2,3-dihydro-3,3,4-trimethyl-benzo[b]thien-5-yl)methylidyne]]bis[1-methyl-2-pyrazolin-5-one] S,S,S′,S′-tetraoxide [Example 7]
[1]; 0.0125 kg/ha
  Herbicide rating AMBEL: 4.0
[1]; 0.0250 kg/ha
  Herbicide rating AMBEL: 7.0
[1]; 0.0500 kg/ha
  Herbicide rating AMBEL: 9.0
[1]; 0.1000 kg/ha
  Herbicide rating AMBEL: 9.0
[2]; 0.0125 kg/ha
  Herbicide rating ABUTH: 3.0
[2]; 0.0250 kg/ha
  Herbicide rating ABUTH: 4.0
[2]; 0.0500 kg/ha
  Herbicide rating ABUTH: 5.0
[2]; 0.1000 kg/ha
  Herbicide rating ABUTH: 7.0
[3]; 0.0125 kg/ha
  Herbicide rating ECHCG: 7.0
[3]; 0.0250 kg/ha
  Herbicide rating ECHCG: 7.0
[3]; 0.0500 kg/ha
  Herbicide rating ECHCG: 8.0
[3]; 0.1000 kg/ha
  Herbicide rating ECHCG: 9.0
[4]; 0.0125 kg/ha
  Herbicide rating ZEAMX: 0.0
[4]; 0.0250 kg/ha
  Herbicide rating ZEAMX: 0.0
[4]; 0.0500 kg/ha
  Herbicide rating ZEAMX: 0.0
[4]; 0.1000 kg/ha
  Herbicide rating ZEAMX: 2.0
[5]; 0.0125 kg/ha
  Herbicide rating SETVI: 7.0
[5]; 0.0250 kg/ha
  Herbicide rating SETVI: 7.0
[5]; 0.0500 kg/ha
  Herbicide rating SETVI: 9.0
[5]; 0.1000 kg/ha
  Herbicide rating SETVI: 9.0
[6]; 0.0125 kg/ha
  Herbicide rating ORYSAT: 3.5
[6]; 0.0250 kg/ha
  Herbicide rating ORYSAT: 6.0
[6]; 0.0500 kg/ha
  Herbicide rating ORYSAT: 7.0
[6]; 0.1000 kg/ha
  Herbicide rating ORYSAT: 7.0
[7]; 0.0125 kg/ha
  Herbicide rating PANDI: 5.0
[7]; 0.0250 kg/ha
  Herbicide rating PANDI: 3.0
[7]; 0.0500 kg/ha
  Herbicide rating PANDI: 7.0
[7]; 0.1000 kg/ha
  Herbicide rating PANDI: 9.0
[8]; 0.0125 kg/ha
  Herbicide rating IPOSS: 1.0
[8]; 0.0250 kg/ha
  Herbicide rating IPOSS: 1.0
[8]; 0.0500 kg/ha
  Herbicide rating IPOSS: 2.0
[8]; 0.1000 kg/ha
  Herbicide rating IPOSS: 2.0

## Cc1c(C(=C2C=NN(C)C2=O)N(C)C)ccc2c1C(C)(C)CS2(=O)=O [Example 2, 4-[(Z)-(2,3-Dihydro-3,3,4-trimethylbenzo[b]thien-5-yl)(dimethylamino)methylene]-1-methyl-2-pyrazolin-5-one S,S-dioxide]
[1]; 0.0125 kg/ha
  Herbicide rating AMBEL: 0.0
[1]; 0.0250 kg/ha
  Herbicide rating AMBEL: 0.0
[1]; 0.0500 kg/ha
  Herbicide rating AMBEL: 0.0
[1]; 0.1000 kg/ha
  Herbicide rating AMBEL: 0.0
[2]; 0.0125 kg/ha
  Herbicide rating ABUTH: 0.0
[2]; 0.0250 kg/ha
  Herbicide rating ABUTH: 0.0
[2]; 0.0500 kg/ha
  Herbicide rating ABUTH: 0.0
[2]; 0.1000 kg/ha
  Herbicide rating ABUTH: 0.0
[3]; 0.0125 kg/ha
  Herbicide rating ECHCG: 0.0
[3]; 0.0250 kg/ha
  Herbicide rating ECHCG: 0.0
[3]; 0.0500 kg/ha
  Herbicide rating ECHCG: 0.0
[3]; 0.1000 kg/ha
  Herbicide rating ECHCG: 0.0
[4]; 0.0125 kg/ha
  Herbicide rating ZEAMX: 0.0
[4]; 0.0250 kg/ha
  Herbicide rating ZEAMX: 0.0
[4]; 0.0500 kg/ha
  Herbicide rating ZEAMX: 0.0
[4]; 0.1000 kg/ha
  Herbicide rating ZEAMX: 0.0
[5]; 0.0125 kg/ha
  Herbicide rating SETVI: 0.0
[5]; 0.0250 kg/ha
  Herbicide rating SETVI: 0.0
[5]; 0.0500 kg/ha
  Herbicide rating SETVI: 0.0
[5]; 0.1000 kg/ha
  Herbicide rating SETVI: 0.0
[9]; 0.0125 kg/ha
  Herbicide rating CHEAL: 0.0
[9]; 0.0250 kg/ha
  Herbicide rating CHEAL: 0.0
[9]; 0.0500 kg/ha
  Herbicide rating CHEAL: 0.0
[9]; 0.1000 kg/ha
  Herbicide rating CHEAL: 0.0

## COc1ccc(OC(=C2C=NN(C)C2=O)c2ccc3c(c2C)C(C)(C)CS3(=O)=O)cc1 [Example 3, 4-[(Z)-(2,3-Dihydro-3,3,4-trimethylbenzo-[b]thien-5-yl)(p-methoxyphenoxy)methylene]-1-methyl-2-pyrazolin-5-one, S,S-dioxide]
[1]; 0.0125 kg/ha
  Herbicide rating AMBEL: 2.0
[1]; 0.0250 kg/ha
  Herbicide rating AMBEL: 4.0
[1]; 0.0500 kg/ha
  Herbicide rating AMBEL: 7.0
[1]; 0.1000 kg/ha
  Herbicide rating AMBEL: 7.0
[2]; 0.0125 kg/ha
  Herbicide rating ABUTH: 2.0
[2]; 0.0250 kg/ha
  Herbicide rating ABUTH: 4.0
[2]; 0.0500 kg/ha
  Herbicide rating ABUTH: 7.0
[2]; 0.1000 kg/ha
  Herbicide rating ABUTH: 7.0
[3]; 0.0125 kg/ha
  Herbicide rating ECHCG: 2.0
[3]; 0.0250 kg/ha
  Herbicide rating ECHCG: 3.0
[3]; 0.0500 kg/ha
  Herbicide rating ECHCG: 4.0
[3]; 0.1000 kg/ha
  Herbicide rating ECHCG: 6.0
[4]; 0.0125 kg/ha
  Herbicide rating ZEAMX: 0.0
[4]; 0.0250 kg/ha
  Herbicide rating ZEAMX: 0.0
[4]; 0.0500 kg/ha
  Herbicide rating ZEAMX: 0.0
[4]; 0.1000 kg/ha
  Herbicide rating ZEAMX: 2.0
[5]; 0.0125 kg/ha
  Herbicide rating SETVI: 1.0
[5]; 0.0250 kg/ha
  Herbicide rating SETVI: 3.0
[5]; 0.0500 kg/ha
  Herbicide rating SETVI: 5.0
[5]; 0.1000 kg/ha
  Herbicide rating SETVI: 7.0
[9]; 0.0125 kg/ha
  Herbicide rating CHEAL: 6.0
[9]; 0.0250 kg/ha
  Herbicide rating CHEAL: 6.0
[9]; 0.0500 kg/ha
  Herbicide rating CHEAL: 8.0
[9]; 0.1000 kg/ha
  Herbicide rating CHEAL: 9.0

## 4-Methoximino-5-methyl-6-(1-ethyl-5-hydroxypyrazol-4-yl)thiocarbonylthiochroman-1,1-dioxide, zinc (+2) chelate [Example 6]
[10]; 0.0500 kg/ha
  Herbicide rating AMBEL: 7.0
[10]; 0.1000 kg/ha
  Herbicide rating AMBEL: 8.0
[10]; 0.2000 kg/ha
  Herbicide rating AMBEL: 9.0
[10]; 0.4000 kg/ha
  Herbicide rating AMBEL: 9.0
[10]; 0.8000 kg/ha
  Herbicide rating AMBEL: 9.0
[11]; 0.0500 kg/ha
  Herbicide rating ABUTH: 9.0
[11]; 0.1000 kg/ha
  Herbicide rating ABUTH: 9.0
[11]; 0.2000 kg/ha
  Herbicide rating ABUTH: 9.0
[11]; 0.4000 kg/ha
  Herbicide rating ABUTH: 9.0
[11]; 0.8000 kg/ha
  Herbicide rating ABUTH: 9.0
[12]; 0.0500 kg/ha
  Herbicide rating GOSHI: 0.0
[12]; 0.1000 kg/ha
  Herbicide rating GOSHI: 1.0
[12]; 0.2000 kg/ha
  Herbicide rating GOSHI: 6.0
[12]; 0.4000 kg/ha
  Herbicide rating GOSHI: 8.0
[12]; 0.8000 kg/ha
  Herbicide rating GOSHI: 7.0
[13]; 0.0500 kg/ha
  Herbicide rating ECHCG: 3.0
[13]; 0.1000 kg/ha
  Herbicide rating ECHCG: 9.0
[13]; 0.2000 kg/ha
  Herbicide rating ECHCG: 9.0
[13]; 0.4000 kg/ha
  Herbicide rating ECHCG: 9.0
[13]; 0.8000 kg/ha
  Herbicide rating ECHCG: 8.0
[14]; 0.0500 kg/ha
  Herbicide rating ZEAMX: 0.0
[14]; 0.1000 kg/ha
  Herbicide rating ZEAMX: 0.0
[14]; 0.2000 kg/ha
  Herbicide rating ZEAMX: 0.0
[14]; 0.4000 kg/ha
  Herbicide rating ZEAMX: 1.0
[14]; 0.8000 kg/ha
  Herbicide rating ZEAMX: 0.0
[15]; 0.0500 kg/ha
  Herbicide rating SETVI: 4.0
[15]; 0.1000 kg/ha
  Herbicide rating SETVI: 7.0
[15]; 0.2000 kg/ha
  Herbicide rating SETVI: 9.0
[15]; 0.4000 kg/ha
  Herbicide rating SETVI: 9.0
[15]; 0.8000 kg/ha
  Herbicide rating SETVI: 9.0
[16]; 0.0500 kg/ha
  Herbicide rating ORYSAT: 4.0
[16]; 0.1000 kg/ha
  Herbicide rating ORYSAT: 7.0
[16]; 0.2000 kg/ha
  Herbicide rating ORYSAT: 9.0
[16]; 0.4000 kg/ha
  Herbicide rating ORYSAT: 9.0
[16]; 0.8000 kg/ha
  Herbicide rating ORYSAT: 9.0
[17]; 0.0500 kg/ha
  Herbicide rating CHEAL: 9.0
[17]; 0.1000 kg/ha
  Herbicide rating CHEAL: 9.0
[17]; 0.2000 kg/ha
  Herbicide rating CHEAL: 9.0
[17]; 0.4000 kg/ha
  Herbicide rating CHEAL: 9.0
[17]; 0.8000 kg/ha
  Herbicide rating CHEAL: 9.0
[18]; 0.0500 kg/ha
  Herbicide rating PANDI: 6.0
[18]; 0.1000 kg/ha
  Herbicide rating PANDI: 9.0
[18]; 0.2000 kg/ha
  Herbicide rating PANDI: 9.0
[18]; 0.4000 kg/ha
  Herbicide rating PANDI: 8.0
[18]; 0.8000 kg/ha
  Herbicide rating PANDI: 8.0
[19]; 0.0500 kg/ha
  Herbicide rating IPOSS: 1.0
[19]; 0.1000 kg/ha
  Herbicide rating IPOSS: 3.0
[19]; 0.2000 kg/ha
  Herbicide rating IPOSS: 6.0
[19]; 0.4000 kg/ha
  Herbicide rating IPOSS: 5.0
[19]; 0.8000 kg/ha
  Herbicide rating IPOSS: 5.0
